Patent US9404081B2, “Pyruvate kinase activators for use in therapy” (AGIOS PHARMACEUTICALS, INC., priority 2011, dated 2016)

Tests used:
Format in all cases: biochemical
PKR T384W = PKR T384W (Homo sapiens, UniProt P30613, T384W); experiment: PKR T384W Single Point Percent Activation Assay; details: read-out: Act. % 384W
Description: PKR T384W Single Point Percent Activation Assay
(§1) A compound described herein was diluted with DMSO and tested at 1 μM concentration. The enzyme was diluted in 1× Buffer: (100 mM KCl, 50 mM Tris 7.5, 5 mM MgCl2, 1 mM DTT, 0.03% BSA). 2 μL of compound solution was first added into wells, and then 180 μL enzyme solution was added. Assays were assembled except for ADP, and plates were stored for 60 minutes at RT. 20 μL ADP was added to start the assay and assay output was evaluated using OD340 at SpectraMax. The assay was run at room temperature.
Final concentration: PKR T384W soluble (300 ng/well), Tris pH 7.5 (50 mM), KCl (100 mM), MgCl2 (5 mM), ADP (0.08 mM), PEP (0.23 mM), NADH (180 μM), LDH (0.5 units, Sigma 59023), DTT (1 mM) and BSA (0.03%).

PKR R510Q = PKR R510Q (Homo sapiens, UniProt P30613, R510Q); experiment: PKR R510Q Single Point Percent Activation Assay; details: read-out: Act. % 510Q
Sequence of PKR R510Q (P30613 whole entry R510Q): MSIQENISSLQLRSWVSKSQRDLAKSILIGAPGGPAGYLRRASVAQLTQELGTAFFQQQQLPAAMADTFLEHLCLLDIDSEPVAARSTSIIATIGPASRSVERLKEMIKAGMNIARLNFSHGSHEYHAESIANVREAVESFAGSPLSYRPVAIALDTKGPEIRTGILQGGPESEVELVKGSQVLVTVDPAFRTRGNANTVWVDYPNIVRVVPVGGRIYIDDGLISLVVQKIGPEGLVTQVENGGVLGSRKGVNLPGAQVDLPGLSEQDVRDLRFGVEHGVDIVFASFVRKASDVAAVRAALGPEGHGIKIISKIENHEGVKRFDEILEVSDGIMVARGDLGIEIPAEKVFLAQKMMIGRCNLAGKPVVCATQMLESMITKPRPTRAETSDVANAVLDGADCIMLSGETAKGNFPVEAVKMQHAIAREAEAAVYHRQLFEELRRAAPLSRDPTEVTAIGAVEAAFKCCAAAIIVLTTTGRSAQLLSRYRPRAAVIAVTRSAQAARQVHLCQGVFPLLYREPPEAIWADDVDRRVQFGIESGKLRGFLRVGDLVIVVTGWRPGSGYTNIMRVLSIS
Description: PKR R510Q Single Point Percent Activation Assay
as §1, with “180 μL of enzyme solution” for “180 μL enzyme solution”
Final concentration: PKR R510Q (40 ng/well), Tris pH 7.5 (50 mM), KCl (100 mM), MgCl2 (5 mM), ADP (0.2 mM), PEP (0.11 mM), NADH (180 μM), LDH (0.5 units, Sigma 59023), DTT (1 mM) and BSA (0.03%).

PKR R532W = PKR R532W (Homo sapiens, UniProt P30613, R532W); experiment: PKR R532W Single Point Percent Activation Assay; details: read-out: Act, % 532W
Sequence of PKR R532W (P30613 whole entry R532W): as the sequence (P30613 whole entry R510Q) above, with Q510R, R532W counted along it
Description: PKR R532W Single Point Percent Activation Assay
as §1, with “180 μL of enzyme solution” for “180 μL enzyme solution”
Final concentration: PKR R532W (100 ng/well), Tris pH 7.5 (50 mM), KCl (100 mM), MgCl2 (5 mM), ADP (0.36 mM), PEP (0.1 mM), NADH (180 μM), LDH (0.5 units, Sigma 59023), DTT (1 mM) and BSA (0.03%).

PKR wt = PKR wt (Homo sapiens, UniProt P30613); experiment: PKR WT Single Point Percent Activation Assay
Sequence of PKR wt (P30613 whole entry): as the sequence (P30613 whole entry R510Q) above, with Q510R counted along it
Description: PKR WT Single Point Percent Activation Assay
as §1, with “180 μL of enzyme solution” for “180 μL enzyme solution”
Final concentration: PKR wt (100 ng/well), Tris pH 7.5 (50 mM), KCl (100 mM), MgCl2 (5 mM), ADP (0.48 mM), PEP (0.15 mM), NADH (180 μM), LDH (0.5 units, Sigma 59023), DTT (1 mM) and BSA (0.03%).

Sequence of PKR T384W (P30613 whole entry T384W): as the sequence (P30613 whole entry R510Q) above, with T384W, Q510R counted along it

| SMILES | activation at 1 µM (PKR T384W) [%] | activation at 1 µM (PKR R510Q) [%] | activation at 1 µM (PKR R532W) [%] | activation at 1 µM (PKR wt) [%] |
| --- | --- | --- | --- | --- |
| CC(C)[C@H]1CN(Cc2cc(F)cc(F)c2)CCN1C(=O)c1ccc(NS(=O)(=O)c2cccc3cccnc23)cc1 | 101 to 500 | 1 to 100 | 1 to 100 | 1 to 100 |
| CCOC(=O)N1[C@H](C)CN(C(=O)c2ccc(NS(=O)(=O)c3cccc4cccnc34)cc2)C[C@@H]1C | 101 to 500 | 101 to 500 | 101 to 500 | 101 to 500 |
| C[C@H]1CN(CC2CCC2)CCN1C(=O)c1ccc(NS(=O)(=O)c2cccc3cccnc23)cc1 | 101 to 500 | 101 to 500 | 101 to 500 | 101 to 500 |
| C[C@H]1CN(CC2CCCCO2)CCN1C(=O)c1ccc(NS(=O)(=O)c2cccc3cccnc23)cc1 (stereo partly drawn) | 1 to 100 | 1 to 100 | 1 to 100 | 1 to 100 |
| CC1CN(Cc2cc(F)cc(F)c2F)CC(C)N1C(=O)c1ccc(NS(=O)(=O)c2cccc3cccnc23)cc1 (stereo not drawn) | 101 to 500 | 101 to 500 | 101 to 500 | 101 to 500 |
| CC(c1ccc(F)c(F)c1F)N1CCN(C(=O)c2ccc(NS(=O)(=O)c3cccc4cccnc34)cc2)[C@H](C)C1 (stereo partly drawn) | 101 to 500 | 1 to 100 | 1 to 100 | 101 to 500 |
| C[C@H]1CN(CC2CCCC2)CCN1C(=O)c1ccc(NS(=O)(=O)c2cccc3cccnc23)cc1Cl | 1 to 100 | 1 to 100 | 1 to 100 | 1 to 100 |
| C[C@@H]1CN(Cc2cc(F)cc(F)c2F)CCN1C(=O)c1ccc(NS(=O)(=O)c2cccc3cccnc23)cc1 | 1 to 100 | 1 to 100 | 101 to 500 | 1 to 100 |
| CC(c1ccc(F)cc1F)N1CCN(C(=O)c2ccc(NS(=O)(=O)c3cccc4cccnc34)cc2)[C@H](C)C1 (stereo partly drawn) | 1 to 100 | 1 to 100 | 1 to 100 | 101 to 500 |
| O=C(c1ccc(NS(=O)(=O)c2cccc3cccnc23)cc1)N1CCn2c(nnc2-c2cc(F)cc(F)c2)C1 | 101 to 500 | 101 to 500 | 101 to 500 | 101 to 500 |
| C[C@H]1CN(Cc2c(F)cc(F)cc2F)CCN1C(=O)c1ccc(NS(=O)(=O)c2cccc3cccnc23)cc1Cl | 101 to 500 | 101 to 500 | 1 to 100 | 101 to 500 |
| C[C@H]1CN(CC2CC2)CCN1C(=O)c1ccc(NS(=O)(=O)c2cccc3cccnc23)cc1Cl | 1 to 100 | 1 to 100 | 1 to 100 | 1 to 100 |
| O=C(c1ccc(NS(=O)(=O)c2cccc3cccnc23)cc1)N1CCN(CC2CC2)c2ccccc21 | 101 to 500 | 1 to 100 | 101 to 500 | 101 to 500 |
| CC1CN(Cc2ccc(Cl)c(F)c2)CC(C)N1C(=O)c1ccc(NS(=O)(=O)c2cccc3cccnc23)cc1 (stereo not drawn) | 101 to 500 | 101 to 500 | 1 to 100 | 101 to 500 |
| C[C@H]1CN(CC2CCOC2)CCN1C(=O)c1ccc(NS(=O)(=O)c2cccc3cccnc23)cc1 (stereo partly drawn) | 1 to 100 | 101 to 500 | 1 to 100 | 101 to 500 |
| C[C@H]1CN(CC2CCOC2)CCN1C(=O)c1ccc(NS(=O)(=O)c2cccc3cccnc23)cc1Cl (stereo partly drawn) | 101 to 500 | 1 to 100 | 101 to 500 | 1 to 100 |
| O=C(c1ccc(NS(=O)(=O)c2cccc3cccnc23)cc1)N1C2CCC1CN(Cc1ccc(F)cc1)C2 | 101 to 500 | 101 to 500 | 1 to 100 | 1 to 100 |
| C[C@@H]1CN(Cc2cc(F)c(F)c(F)c2)CCN1C(=O)c1ccc(NS(=O)(=O)c2cccc3cccnc23)cc1 | 1 to 100 | 101 to 500 | 1 to 100 | 1 to 100 |
| C[C@@H]1CN(CC2CCCC2)CCN1C(=O)c1ccc(NS(=O)(=O)c2cccc3cccnc23)cc1 | 101 to 500 | 1 to 100 | 1 to 100 | 1 to 100 |
| C[C@H]1CN(CC2CCCC2)CCN1C(=O)c1ccc(NS(=O)(=O)c2cccc3cccnc23)cc1 | 101 to 500 | 101 to 500 | 1 to 100 | 101 to 500 |

Results, then the molecule that gave them:

| activation at 1 µM (PKR T384W) [%] | activation at 1 µM (PKR R510Q) [%] | activation at 1 µM (PKR R532W) [%] | activation at 1 µM (PKR wt) [%] | SMILES |
| --- | --- | --- | --- | --- |
| 101 to 500 | 101 to 500 | 101 to 500 | 101 to 500 | C[C@H]1CN(Cc2ccccc2)CCN1C(=O)c1ccc(NS(=O)(=O)c2cccc3cccnc23)cc1 |
| 101 to 500 | 1 to 100 | 101 to 500 | 101 to 500 | C[C@H]1CN(C(=O)OCC2CC2)CCN1C(=O)c1ccc(NS(=O)(=O)c2cccc3cccnc23)cc1 |
| 101 to 500 | 101 to 500 | 101 to 500 | 101 to 500 | C[C@H]1CN(C(=O)c2ccc(NS(=O)(=O)c3cccc4cccnc34)cc2)CCN1Cc1ccccc1 |
| 101 to 500 | 101 to 500 | 101 to 500 | 101 to 500 | CC(c1ccc(F)cc1)N1CCN(C(=O)c2ccc(NS(=O)(=O)c3cccc4cccnc34)cc2)[C@H](C)C1 (stereo partly drawn) |
| 1 to 100 | 1 to 100 | 1 to 100 | 101 to 500 | C[C@@H]1CN(C(=O)OCC2CCCO2)CCN1C(=O)c1ccc(NS(=O)(=O)c2cccc3cccnc23)cc1 (stereo partly drawn) |
| 101 to 500 | 101 to 500 | 101 to 500 | 101 to 500 | C[C@@H]1CN(C(=O)OC2CCCC2)CCN1C(=O)c1ccc(NS(=O)(=O)c2cccc3cccnc23)cc1 |
| 101 to 500 | 1 to 100 | 101 to 500 | 101 to 500 | COc1cccc(CN2CCN(C(=O)c3ccc(NS(=O)(=O)c4cccc5cccnc45)cc3)[C@H](C)C2)c1OC |
| 101 to 500 | 1 to 100 | 1 to 100 | 101 to 500 | C[C@@H]1CN(C(=O)c2ccc(NS(=O)(=O)c3cccc4cccnc34)cc2)CCN1C(=O)c1ccccn1 |
| 101 to 500 | 101 to 500 | 1 to 100 | 101 to 500 | C[C@H]1CN(Cc2cc(F)cc(F)c2)CCN1C(=O)c1ccc(NS(=O)(=O)c2cccc3cccnc23)cc1 |
| 1 to 100 | 101 to 500 | 1 to 100 | 1 to 100 | CC(c1ccc(Cl)c(F)c1)N1CCN(C(=O)c2ccc(NS(=O)(=O)c3cccc4cccnc34)cc2)[C@@H](C)C1 (stereo partly drawn) |
| 101 to 500 | 101 to 500 | 101 to 500 | 101 to 500 | C[C@@H]1CN(C(=O)OC2CCCOC2)CCN1C(=O)c1ccc(NS(=O)(=O)c2cccc3cccnc23)cc1 (stereo partly drawn) |
| 1 to 100 | 101 to 500 | 101 to 500 | 101 to 500 | CCOC(=O)N1CCN(C(=O)c2ccc(NS(=O)(=O)c3cccc4cccnc34)cc2)c2ccccc21 |
| 101 to 500 | 101 to 500 | 1 to 100 | 101 to 500 | C[C@@H]1CN(CC2CC2)CCN1C(=O)c1ccc(NS(=O)(=O)c2cccc3cccnc23)cc1 |
| 101 to 500 | 1 to 100 | 101 to 500 | 101 to 500 | CC(c1ccc(F)cc1F)N1CCN(C(=O)c2ccc(NS(=O)(=O)c3cccc4cccnc34)cc2)[C@@H](C)C1 (stereo partly drawn) |
| 101 to 500 | 101 to 500 | 101 to 500 | 101 to 500 | C[C@@H]1CN(C(=O)c2ccc(NS(=O)(=O)c3cccc4cccnc34)cc2)CCN1Cc1ccccc1 |
| 1 to 100 | 1 to 100 | 101 to 500 | 101 to 500 | C[C@H]1CN(C(=O)c2ccccn2)CCN1C(=O)c1ccc(NS(=O)(=O)c2cccc3cccnc23)cc1 |
